Reference: US11464749B2, “Bismuth-thiol compositions and methods of use” (Microbion Corporation, priority 2018, dated 2022)
Read-outs that look alike come from different tables or passages of the source.

Key:
M. abscessus complex = assay: MIC against CF bacterial strains (Example 5); format: cell-based, Mycobacterium abscessus; settings: Mycobacteroides abscessus
Method: A range of CF-isolated strains of Mycobacterium avium and Mycobacterium abscessus were included; which allows for understanding of the activity against non-tubercular Mycobacteria (NTM). Two distinct bismuth-thiol compounds were evaluated, including BisEDT and BisBDT. […] The CF-isolates of greater clinical relevance, including both M abscessus spp. and Burkholderia spp., were both consistently found to be much more susceptible to BisEDT and BisBDT.

Candida albicans = assay: Broth microdilution antifungal susceptibility (Example 13); format: cell-based; settings: Candida albicans
Candida auris = assay: as above; format: cell-based; settings: Candidozyma auris
Enterobacteriaceae = assay: Broth microdilution MIC (Example 11); settings: Escherichia coli, read-out: MIC values
P. aeruginosa = assay: MIC against CF bacterial strains (Example 5); settings: Pseudomonas aeruginosa
Achromobacter spp. = assay: MIC against CF bacterial strains (Example 5)
[1] = test system: B. cenocepacia (B cepacia complex); assay: MIC against CF bacterial strains (Example 5); settings: Burkholderia cenocepacia
[2] = Aerosol testing of BisEDT suspension formulations (aerosol concentration, particle size); format: physicochemical; settings: Lot # ED268-1-11-01; 25 mg/mL formulation
From the text: Objective: The objective of this study was to develop methods for the nose-only inhalation exposures of BisEDT for rodents. The aerosols were generated from suspension formulations of BisEDT in aqueous media (0.5% TWEEN 80® in Sodium Phosphate Buffer, pH 7.4). […] Suspension formulations were created by sonication with neat API with 0.5% TWEEN 80® in Sodium Phosphate Buffer, pH 7.4. This was further refined by adjusting the vehicle to an osmolality of 300 mOsmol/kg. Aerosols were characterized for particle size distribution and aerosol concentration. Aerosol concentration was determined by differential mass and chemical analysis of the aerosol filter samples.
Aerosol Methods: Formulation—Suspension formulations of BisEDT were prepared in 0.5% TWEEN 80® in Sodium Phosphate Buffer, pH 7.4. Suspensions of 2.5, 10, 25, 50, 75 and 100 mg/mL were prepared by sonication with a Covaris sonicator. In later tests, the vehicle was adjusted with sodium chloride to achieve an Osmolality of 300 mOsmol/kg. Suspensions were prepared at 2.5, 50, and 100 mg/mL.
Aerosol concentration was measured at the breathing zone of the exposure system by collection of the aerosol onto 47-mm filters (Whatman GF/A membrane filters). Filter samples were collected at a nominal flowrate of 0.3 L/min. Aerosol mass concentration was determined by differential weight analysis of the filter samples. […]

[3] = Particle size of BisEDT microparticles (Nanosizer/Zetasizer); format: physicochemical; settings: resuspended in 2% Pluronic F-68, sonicated
Method: The dried particulate matter was characterized to assess the particle size properties. Briefly, microparticles were resuspended in 2% Pluronic® F-68 (BASF, Mt. Olive, N.J.) and the suspension was sonicated for 10 minutes in a water bath sonicator at standard setting prior to analysis using a Nanosizer/Zetasizer Nano-S particle analyzer (model ZEN1600 (without zeta-potential measuring capacity), Malvern Instruments, Worcestershire, UK) according to the manufacturer's recommendations.

[4] = Phase 1 human clinical studies, topical tolerability; format: in vivo; settings: humans
[5] = Single-dose rat PK comparing inhalation, IV and oral dosing
Method: Blood Collection for Bioanalytical Analysis: Following exposure, non-terminal blood collections were performed on 2 animals per sex at 0.5, 2, and 8 hours post exposure. Approximately 1 mL of systemic whole blood was collected by jugular vein into tubes containing K3EDTA as an anticoagulant. The tubes were flash frozen with liquid nitrogen stored without processing at −70 to −90° C. until shipping for analysis using ICP-MS assay for quantitation of bismuth as a surrogate for BisEDT.
Increasing the dose and interval leads to larger fluctuations in tissue and blood levels between peak (after dosing) and trough levels (prior to dosing).

[6] = 24 hours after single inhalation dose
[7] = 4 days (96 hrs) after single inhalation dose

## CC(S)C(C)S.[Bi] (centres unmarked) [BisBDT, bismuth-2,3-butanedithiol]
M. abscessus complex; AMT0068-40, M abscessus/massiliense complex, read-out: MIC
  MIC: 0.06 µg/mL
M. abscessus complex; AMT 0068-40, MABSC CF isolate, macrolide-S, amikacin-I
  MIC: 0.125 µg/mL
M. abscessus complex; AMT 0089-5, MABSC CF isolate, macrolide-R, amikacin-R
  MIC: 0.125 µg/mL
M. abscessus complex; AMT0119-7, M abscessus/massiliense complex, read-out: MIC
  MIC: < 0.03 µg/mL
M. abscessus complex; AMT 0119-7, MABSC CF isolate, macrolide-S, amikacin-I
  MIC: 0.125 µg/mL
M. abscessus complex; AMT0130-8, M abscessus/massiliense complex, read-out: MIC
  MIC: < 0.03 µg/mL
M. abscessus complex; AMT 0130-8, MABSC CF isolate, macrolide-S, amikacin-I, read-out: MIC
  MIC: 0.0625 µg/mL
M. abscessus complex; AMT 0136-10, MABSC CF isolate, macrolide-R, amikacin-R, read-out: MIC
  MIC: 0.0625 µg/mL
M. abscessus complex; AMT153-9, M abscessus/massiliense complex, read-out: MIC
  MIC: < 0.03 µg/mL
M. abscessus complex; AMT 0153-9, MABSC CF isolate, macrolide-S, amikacin-I
  MIC: 0.125 µg/mL
M. abscessus complex; AMT 0157-14, MABSC CF isolate, macrolide-R, amikacin-I
  MIC: 0.125 µg/mL
M. abscessus complex; AMT 0166-29, MABSC CF isolate, macrolide-R, amikacin-R
  MIC: 0.125 µg/mL
M. abscessus complex; AMT0493-2, M abscessus/massiliense complex, Amikacin resistant, read-out: MIC
  MIC: 0.125 µg/mL
M. abscessus complex; AMT 0493-2, MABSC CF isolate, macrolide-S, amikacin-R
  MIC: 0.5 µg/mL
M. abscessus complex; ATCC19977, ATCC 19977, M abscessus/massiliense complex, Macrolide resistant (inducible), read-out: MIC
  MIC: < 0.03 µg/mL
M. abscessus complex; ATCC19977, ATCC 19977, M. abscessus abscessus, ATCC type strain, read-out: MIC
  MIC: 0.25 µg/mL
Candida albicans; 24 h, read-out: MIC0 (complete inhibition), isolate MMX 7053 (Susceptible), 24 hr
  MIC: 1 µg/mL
Candida albicans; 24 h, read-out: MIC0 (complete inhibition), isolate MMX 7067 (FLU-R, VORI-R), 24 hr
  MIC: 1 µg/mL
Candida albicans; 24 h, read-out: MIC0 (complete inhibition), isolate MMX 7430 (Susceptible), 24 hr
  MIC: 0.5 µg/mL
Candida albicans; 24 h, read-out: MIC0 (complete inhibition), isolate MMX 7437 (FLU-I), 24 hr
  MIC: 2 µg/mL
Candida albicans; 24 h, read-out: MIC0 (complete inhibition), isolate MMX 7445 (FLU-R, VORI-R), 24 hr
  MIC: 2 µg/mL
Candida albicans; 24 h, read-out: MIC2 (50% inhibition)
  MIC: 1 µg/mL
Candida albicans; 24 h, read-out: MIC2 (50% inhibition), isolate ATCC MYA-2732 (FLU-R, VORI-I), 24 hr
  MIC: 1 µg/mL
Candida albicans; 24 h, read-out: MIC2 (50% inhibition), isolate MMX 7053 (Susceptible), 24 hr
  MIC: 0.5 µg/mL
Candida albicans; 24 h, read-out: MIC2 (50% inhibition), isolate MMX 7067 (FLU-R, VORI-R), 24 hr
  MIC: 0.5 µg/mL
Candida albicans; 24 h, read-out: MIC2 (50% inhibition), isolate MMX 7403 (Susceptible), 24 hr
  MIC: 0.25 µg/mL
Candida albicans; 24 h, read-out: MIC2 (50% inhibition), isolate MMX 7424 (CASP-R, MICA-R), 24 hr
  MIC: 1 µg/mL
Candida albicans; 24 h, read-out: MIC2 (50% inhibition), isolate MMX 7430 (Susceptible), 24 hr
  MIC: 0.25 µg/mL
Candida albicans; 24 h, read-out: MIC2 (50% inhibition), isolate MMX 7445 (FLU-R, VORI-R), 24 hr
  MIC: 1 µg/mL
Candida albicans; 24 h, read-out: MIC0 (complete inhibition)
  MIC: 2 µg/mL
Candida albicans; ATCC90028, 24 h, read-out: MIC0 (complete inhibition), isolate ATCC 90028 (Susceptible), 24 hr
  MIC: 2 µg/mL
Candida albicans; ATCC90028, 24 h, read-out: MIC2 (50% inhibition), isolate ATCC 90028 (Susceptible), 24 hr
  MIC: 0.5 µg/mL
Candida albicans; ATCC204276, 24 h, read-out: MIC0 (complete inhibition), isolate ATCC 204276 (MICA-R), 24 hr
  MIC: 1 µg/mL
Candida albicans; ATCC204276, read-out: MIC2 (50% inhibition), isolate ATCC 204276 (MICA-R), result after 48 hr incubation (insufficient growth at 24 hr)
  MIC: 1 µg/mL
Candida auris; read-out: MIC0 (complete inhibition), isolate MMX 9862 (Susceptible)
  MIC: 1 µg/mL
Candida auris; read-out: MIC0 (complete inhibition), isolate MMX 9863 (FLU-R, VORI-R)
  MIC: 2 µg/mL
Candida auris; read-out: MIC0 (complete inhibition), isolate MMX 9864 (FLU-R, VORI-R)
  MIC: 1 µg/mL
Candida auris; read-out: MIC0 (complete inhibition), isolate MMX 9865 (FLU-R, VORI-R)
  MIC: 2 µg/mL
Candida auris; read-out: MIC0 (complete inhibition), isolate MMX 9866 (FLU-R, VORI-R)
  MIC: 2 µg/mL
Candida auris; read-out: MIC0 (complete inhibition), isolate MMX 9867 (FLU-R, VORI-R)
  MIC: 2 µg/mL
Candida auris; read-out: MIC0 (complete inhibition), isolate MMX 9868 (FLU-R, VORI-R)
  MIC: 4 µg/mL
Candida auris; read-out: MIC0 (complete inhibition), isolate MMX 9869 (FLU-R, VORI-R)
  MIC: 4 µg/mL
Candida auris; read-out: MIC0 (complete inhibition), isolate MMX 9870 (FLU-R, VORI-R)
  MIC: 2 µg/mL
Candida auris; read-out: MIC0 (complete inhibition), isolate MMX 9871 (Susceptible)
  MIC: 2 µg/mL
Candida auris; read-out: MIC2 (50% inhibition), isolate MMX 9862 (Susceptible)
  MIC: 0.5 µg/mL
Candida auris; read-out: MIC2 (50% inhibition), isolate MMX 9863 (FLU-R, VORI-R)
  MIC: 1 µg/mL
Candida auris; read-out: MIC2 (50% inhibition), isolate MMX 9864 (FLU-R, VORI-R), result after 48 hr incubation (insufficient growth at 24 hr)
  MIC: 1 µg/mL
Candida auris; read-out: MIC2 (50% inhibition), isolate MMX 9865 (FLU-R, VORI-R)
  MIC: 1 µg/mL
Candida auris; read-out: MIC2 (50% inhibition), isolate MMX 9866 (FLU-R, VORI-R)
  MIC: 1 µg/mL
Candida auris; read-out: MIC2 (50% inhibition), isolate MMX 9867 (FLU-R, VORI-R)
  MIC: 1 µg/mL
Candida auris; read-out: MIC2 (50% inhibition), isolate MMX 9868 (FLU-R, VORI-R)
  MIC: 1 µg/mL
Candida auris; read-out: MIC2 (50% inhibition), isolate MMX 9869 (FLU-R, VORI-R)
  MIC: 1 µg/mL
Candida auris; read-out: MIC2 (50% inhibition), isolate MMX 9870 (FLU-R, VORI-R)
  MIC: 1 µg/mL
Candida auris; read-out: MIC2 (50% inhibition), isolate MMX 9871 (Susceptible)
  MIC: 1 µg/mL
Enterobacteriaceae
  MIC: 0.5 to 2 µg/mL
P. aeruginosa; strain AGR1
  MIC: 1 µg/mL
P. aeruginosa; strain AGR14, Multi-drug resistant
  MIC: 1 µg/mL
P. aeruginosa; strain MR14, Multi-drug resistant
  MIC: 1 µg/mL
Achromobacter spp.
  MIC: 0.5 µg/mL
Achromobacter spp.; Achromobacter
  MIC: 1 µg/mL
[1]
  MIC: 4 µg/mL

## C1C[S][Bi]([S]CC[S][Bi]2[S]CC[S]2)[S]1 [BisEDT, bismuth-1,2-ethanedithiol]
[2]
  BisEDT Aerosol Conc., average of all extracted concentrations incl. outlier filter: 64.4 µg/L
[3]
  peak volumetric mean diameter (VMD) of microparticles: about 1.3 microns
[4]; 6 hours
  concentration well-tolerated when administered topically: up to 2500 μg/cm^2
[4]; over 21 days continuous exposure, normal and abraded skin
  concentration tolerated when administered topically: up to 75 μg/cm^2
[5]; 100 μg/kg IV
  lung levels after IV dosing vs inhalation group: < 5%
[5]; 100 μg/kg inhalation and IV and 250 μg/kg oral
  tolerability: tolerated
[5]; 250 μg/kg oral
  lung levels after oral dosing: no lung levels
[5]; [6]
  equated concentration in lung fluid: 123 µg/mL
  lung tissue concentration: 4,093 ng/g
[5]; [7]
  equated concentration in lung fluid: 78 µg/mL
  lung tissue concentration: 2,600 ng/g
[5]; IV dosing
  duration of initial distribution into tissues: 18 h
[5]; both, lung versus whole blood, inhaled, 100 μg/kg
  Kp: ~10
